One molecule from patent US20240180887A1, “USE OF PPAR(gamma) AGONISTS OR MPC INHIBITORS FOR TREATING PRIMARY, INNATE DISEASES OF THE CARDIAC MUSCLE (CARDIOMYOPATHIES)” (PREVENTAGE THERAPEUTICS GMBH, priority 2021, published 2024) can be followed below.

Entries after “also recorded” stand apart in the source; their conditions may differ.

The test system of one experiment is cardiac myosin. The experiment can be described thus: Mant-ATP assay of left ventricular cardiac myosins (DRX vs SRX state). The note with it: αMHC^719/+ mice treated with pioglitazone vs untreated αMHC^719/+ mice. The experiment is classed as in vivo, mouse. From the text:
FIG. 5 Examination of the percentages of left ventricular cardiac myosins in the DRX (disordered relaxation) compared to the SRX (super-relaxed) state using a fluorescent ATP analog. […] The treatment of the HCM mouse model with pioglitazone thus also has a positive effect on the functional properties of the left ventricular heart muscle tissue. The results of this Mant-ATP assay indicate that it was possible to prevent the changes in the biophysical properties of the myosins, which are described as being the cause of hypertrophic cardiomyopathy, in the mice treated with pioglitazone.
Cardiac myosin ATPase activity was measured by Mant-ATP assay, which examines cardiomyocyte contractility and relaxation indirectly by measuring the activity of cardiac myosin ATPase. For this purpose, the Mant-ATP assay (Roche) was applied in the left ventricular myocardium of the different mouse groups, which was shock-frosted in liquid nitrogen and stored in frozen state at −80° C. Mant-ATP is a fluorescent, […] ATP that binds the head of the cardiac myosin. The assay measures the release of Mant-ATP after addition of ATP^44,45.

Experiment [1] relates to HCM mice (αMHC^719/+). Put plainly: Heart-to-body weight ratio ex vivo after organ removal. The experiment is classed as in vivo, mouse. The conditions noted are these: αMHC^719/+ mice, pioglitazone 10 mg/kg of body weight/day orally, 6 weeks, vs untreated αMHC^719/+ mice, p=0.008. The protocol: The mice were weighed and euthanized to calculate the heart-to-body weight ratio. The thorax was opened quickly, and the heart was removed and washed twice in cold PBS solution. The large vessels and connective tissue were removed, the heart was swapped dry and weighed, and the heart and body weight of the mouse were determined.

Experiment [2] concerns radical oxygen species (ROS). Put plainly: Radical oxygen species (ROS) in left ventricular myocardium by electron paramagnetic resonance spectroscopy. The experiment is classed as in vivo, mouse. The conditions noted are these: αMHC^719/+ mice treated with pioglitazone vs untreated HCM mice, 6 weeks, p=0.053. The source says:
Reduction of oxidative stress: The treatment with PPARγ agonists leads to reduced expression of hypoxia-inducible factor 1-alpha, a major transcription factor in the redox signaling pathway. As a result, less radical oxygen species are produced in the left ventricular myocardium, thereby reducing cellular oxidative stress. A protective effect on the pathological remodeling of the cardiac muscle was observed.
Electron paramagnetic resonance (EPR) was applied as described in order to calculate the production of radical oxygen species (ROS) in the left ventricular myocardium^46-48. […] The analysis of ROS generation was carried out at 37° C. for 10 minutes with 20 scans in an Escan EPR spectrometer under temperature control (Noxygen) and the following parameters: microwave power 23.89 mW; center field 3459-3466 G; steep width 10 G, frequency 9.7690 GHz and modulation amplitude 2.93 G. ROS generation was calculated by means of linear regression and normalized to the cellular protein content.

In experiment [3] the test system is αMHC^719/+ HCM mouse model. The experiment can be described thus: Preclinical αMHC^719/+ HCM mouse model, overall summary of results. It counts as in vivo. The note with it: oral administration in the αMHC^719/+ HCM mouse model. How it is done: The examinations were carried out on an established HCM mouse model, in which an arginine-to-tryptophan mutation at position 719 of the heavy chain of the cardiac mouse alpha-myosin gene was effected by homologous recombination (referred to as αMHC^719/+)^38. Such genetically modified mice increasingly develop the typical pathognomonic disease characteristics of hypertrophic cardiomyopathy such as myocardial hypertrophy and fibrosis with increasing age. The phenotype of this genetically generated HCM mouse model thus simulates the phenotype of HCM patients affected^36,37,38. The manifestation of the disease can be accelerated by subcutaneous administration of the calcineurin inhibitor cyclosporin A (CsA)^9.
Between their 6th and 12th postnatal week, all mice were injected subcutaneously with cyclosporin A (CsA) to accelerate hypertrophic remodeling in the myocardium in the HCM mouse model^9. Half of the mice were treated with the PPARγ agonists rosiglitazone and pioglitazone from the group of thiazolidinediones between their 6th and 12th postnatal week. In their 12th postnatal week, they were subjected to in vivo transthoracic echocardiography. The animals were then euthanized for ex vivo examination (organ removal, histopathology, and determination of radical oxygen species, of mRNA and protein expression in the tissue) (see FIG. 10).D

For experiment [4], the system named is Acta1, Col1a1, Col1a2, Cyba, Gdf15, Hif1a, Icam1, IL33, Mmp2, Nfkb1, Nox4, Nppa, Postn, Tgfb1, Tgfb2, Tgfb3. Put plainly: mRNA expression of pro-hypertrophic, pro-fibrotic and pro-inflammatory genes in left ventricular myocardium (RNA sequencing). The experiment is classed as in vivo, mouse. The note with it: αMHC^719/+ mice treated with pioglitazone vs untreated, p<0.001. The protocol:
FIG. 8 The mRNA expression of pro-hypertrophic, pro-fibrotic, and pro-inflammatory genes such as Acta1, Col1a1, Col1a2, Cyba, Gdf15, Hif1a, Icam1, IL33, Mmp2, Nfkb1, Nox4, Nppa, Postn, Tgfb1, Tgfb2, and Tgfb3 is increased in the left ventricular myocardium of αMHC^719/+ HCM mice (HET) compared to wild-type mice (WT) (HET/WT). […] Strand-specific, polyA-enriched RNA sequencing was carried out as described above^51. The RNA was isolated using the AllPrep RNA Kit (Qiagen). The RNA integrity number (RIN) was determined using the Agilent 2100 BioAnalyzer (RNA 6000 Nano Kit, Agilent). In order to prepare the library, 1 μg RNA was poly(A)-selected, fragmented, and reverse-transcribed with the Elute, Prime, Fragment Mix (Illumina). […] RNA libraries were tested for quality and quantity using the Agilent 2100 BioAnalyzer and the Quant-iT PicoGreen dsDNA Assay Kit (Life Technologies). […] The STAR Aligner (version 2.4.2a)^52 with modified parameter settings (--twopassMode=Basic) was used for the split-read alignment against the […] genome assembly hg19 (GRCh37) and the UCSC knownGene annotation. HTseq-count (version 0.6.0)^53 was used to quantify the number of reads mapped to annotated genes. FPKM values (fragments per kilobase of transcript per million fragments mapped) were calculated using custom scripts. […]

Experiment [5] deals with HCM mice (αMHC^719/+). Put plainly: Histopathology of left ventricular myocardium, Masson's trichrome (myocardial fibrosis), experimental setup A. It counts as in vivo, mouse. From the text:
FIG. 6 Histopathology of the left ventricular myocardium of wild-type (WT) and HCM mice (αMHC^719/+) with and without treatment with pioglitazone (PIO) after 6 weeks; myocardial fibrosis appears in medium gray in the Masson's trichrome-stained histological sections. […] HCM mice show massive myocardial fibrosis (white arrows in (C)).
In order to quantify myocardial fibrosis, the removed hearts were fixed in 4% paraformaldehyde, dehydrated, and placed in paraffin, as described above^37,42,43. 5-μm sections were stained with Masson's trichrome and hematoxylin-eosin. The extent of myocardial fibrosis was quantified by a digitized method by calculating the percentage of cardiac muscle portions stained blue with Masson's trichrome in relation to the overall stained cardiac muscle. Perivascular and intramurine structures, the endocardium, or trabeculas were excluded in the calculation of the percentage of fibrosis.

Regarding `CCc1ccc(CCOc2ccc(CC3SC(=O)NC3=O)cc2)nc1` (racemic) [pioglitazone, (RS)-5-{p-[2-(5-ethyl-2-pyridyl)ethoxy]benzyl}-2,4-thiazolidinedione], the “percentages of left ventricular cardiac myosins in the DRX compared to the SRX state” value with cardiac myosin is “significant shift towards the SRX state; also recorded: prevents the functional biophysical changes”. Also, the “development of myocardial hypertrophy (heart-to-body weight ratio ex vivo)” value in the experiment on HCM mice (αMHC^719/+) [1] is listed as “completely inhibited”. The “production of radical oxygen species in the left ventricular myocardium” value is given as “significantly decreased” in experiment [2] and “significantly reduced” in experiment [2] (listed as poglitazone). Moreover, the “changes in biophysical properties in the heart muscle cell and onset of myocardial hypertrophy and fibrosis” value in experiment [3] is “largely prevents”. Further, the “overexpression of pro-hypertrophic, pro-fibrotic and pro-inflammatory genes (HET+PIO/HET)” value in experiment [4] is reported as “significantly reduced or completely prevented; also recorded: prevents”. Further, the “myocardial fibrosis in wild-type mice” value with HCM mice (αMHC^719/+) [5] (wild-type mice with treatment with pioglitazone, 6 weeks) is “hardly any fibrosis”. Moreover, the “formation of myocardial fibrosis (histological sections)” value in the experiment with HCM mice (αMHC^719/+) [5] (αMHC^719/+ mice, pioglitazone 10 mg/kg of body weight/day orally, 6 weeks) is reported as “almost completely prevents the formation of myocardial fibrosis”. Moreover, the “fibrosis after semi-automated threshold detection of collagen (ImageJ)” value in the experiment on HCM mice (αMHC^719/+) [5] (αMHC^719/+ mice, pioglitazone 10 mg/kg/day orally vs untreated HCM mice, p=0.017) is “significantly less fibrosis”.
